Read-outs that look alike come from different tables or passages of the source.
Legend:
Format in all cases: cell-based, human
[1] = test system: KRAS G12C mutant NCI-H358 cells; assay: Cell proliferation inhibition experiment, 3D spheroid, CellTiter-Glo, NCI-H358; settings: NCI-H358 (KRAS G12C mutant) 3D spheroid, 5 days with compound, CellTiter-Glo, read-out: H358 IC50
Description: (§1) Raw materials and instruments: NCI-H358 purchased from ATCC; article number: CRL-5807; batch number: 70010825; A549 purchased from ATCC; article number: CCL-185; batch number: 70007820; RPMI1640 purchased from Gibco; article number: 11875-093; batch number: 2152748; F-12K purchased from Gibco; article number: 21127-022; batch number: 2185853; FBS purchased from Gibco; article number: 10099-141; batch number: 2109290CP; PS purchased from Gibco; article number: 15140-122; batch number: 2145451; Trypsin-EDTApurchased from Gibco; article number: 25200-072; batch number: 2085552; CellTiter Glo working solution purchased from Promega; article number: G9683; batch number: 398478; DMSO purchased from VWR AMRESCO; article number: 0231-500ML; batch number: 18C0656168; 384-well spheroid plate purchased from Corning; article number: 3830; batch number: 27519032; white opaque 384-well plate purchased from Corning; article number: 3570; batch number: 26819023; microplate reader purchased from PerkinElmer; model: Envision MLD2105-0020; equipment number 1050369.
(§2) NCI-H358 is a KRAS G12C mutant human non-small cell lung cancer cell line, cultured in 10% FBS RPMI-1640+1% PS culture medium; and A549 is a KRAS G12S mutant human lung adenocarcinoma cell line, cultured in 10% FBS F-12K+1% PS culture medium. Cells at logarithmic growth stage were taken, digested with trypsin-EDTA, then collected and counted. H358 was adjusted to 1.8 E4 cells/mL with 2% FBS RPMI-1640 culture medium, and A549 was adjusted to 8.9 E3 cells/mL with 2% FBS F-12K culture medium; 800 (45 μL) H358 or 400 (45 μL) A549 were inoculated respectively in a 384-well spheroid plate and cultured overnight to establish a 3D cell model. A 3.16-fold gradient concentration stock solution of 1000× compound was prepared with DMSO, and diluted 100-fold to 10× compound stock solution with 2% FBS culture medium. On the second day after cell inoculation, 5 μL of 10× compound stock solution was added to each cell culture well, with a final concentration of 1× and a DMSO content of 0.1%. DMSO was used as experimental control (control), and 2% FBS culture medium was used as blank control (blank). After 5 days of compound cell culture, 25 μL of CellTiter-Glo working solution was added to each well, mixed well at 400 rpm and incubated for 30 minutes. After standing at room temperature for 30 minutes, 40 μL of the mixed solution was transferred to a white opaque 384-well plate, and the luminescence chemiluminescence value was read with a microplate reader. The cell proliferation inhibition rate IR (%)=(RLU control -RLU compound)/(RLU control -RLU blank) x100% was calculated. The gradient dilution concentration of the compound and the corresponding cell proliferation inhibition rate were fitted by Prism 6 four-parameter method, and the IC50 value was calculated. The inhibitory activity of the compounds prepared in the above embodiments of the present disclosure on KRAS G12C mutant NCI-H358 cells was 0.0001 μM to 0.5 μM; the inhibitory activity of some compounds on KRAS G12C mutant NCI-H358 cells was 0.001 μM to 0.1 μM or 0.001 μM to 0.05 μM.

[2] = test system: A549 cells (KRAS G12S mutant); assay: Cell proliferation inhibition experiment, 3D spheroid, CellTiter-Glo, A549; settings: A549 (KRAS G12S mutant) 3D spheroid, 5 days with compound, CellTiter-Glo, read-out: A549 IC50
Description: as §1, §2

[3] = test system: KRAS G12C mutant MIA PaCa-2 cells; assay: Cell proliferation inhibition experiment, 3D spheroid, CellTiter-Glo, MIA PaCa-2; settings: 3D cell model in 384-well spheroid plate, 5 days, CellTiter-Glo, read-out: MIA-PaCa2 IC50
Description: Raw materials and instruments: MIA PaCa-2 purchased from ATCC; article number: CRL-1420; batch number: 63143594; DMEM purchased from Gibco; article number: 11995-065; batch number: 2186878; FBS purchased from Gibco; article number: 10099-141; batch number: 2109290CP; Horse Serum purchased from Gibco; article number: 16050-122; batch number: 1818976; PS purchased from Gibco; article number: 15140-122; batch number: 2145451; Trypsin-EDTA purchased from Gibco; article number: 25200-072; batch number: 2085552; CellTiter Glo working solution purchased from Promega; article number: G9683; batch number 398478; DMSO purchased from VWR AMRESCO; article number: 0231-500ML; batch number: 18C0656168; 384-well spheroid plate purchased from Corning; article number: 3830; batch number: 27519032; white opaque 384-well plate purchased from Corning; article number: 3570; batch number: 26819023; microplate reader purchased from PerkinElmer; model: Envision MLD2105-0020; equipment number 1050369.
MIA PaCa-2 is a KRAS G12C mutant human pancreatic cancer cell line, cultured in 10% FBS+2.5% Horse Serum DMEM+1% PS culture medium; cells at logarithmic growth stage were taken, digested with trypsin-EDTA, then collected and counted, and 200 MIA PaCa-2 were inoculated in a 384-well spheroid plate, respectively, and cultured overnight to establish a 3D cell model. A 3.16-fold gradient concentration stock solution of 1000× compound was prepared with DMSO, and diluted 100-fold to 10× compound stock solution with culture medium. On the second day after cell inoculation, 10× compound stock solution was added to each cell culture well, with a final concentration of 1× and a DMSO content of 0.1%. DMSO was used as experimental control (control), and culture medium was used as blank control (blank). After 5 days of compound cell culture, 30 μL of CellTiter-Glo working solution was added to each well, mixed well and incubated for 30 minutes. After standing at room temperature for 30 minutes, 40 μL of the mixed solution was transferred to a white opaque 384-well plate, and the luminescence chemiluminescence value was read with a microplate reader. The cell proliferation inhibition rate IR (%)=(RLU control -RLU compound)/(RLU control−RLU blank)×100% was calculated. The gradient dilution concentration of the compound and the corresponding cell proliferation inhibition rate were fitted by XLFit four-parameter method, and the IC50 value was calculated. The inhibitory activity of the compounds prepared in the above embodiments of the present disclosure on KRAS G12C mutant MIA PaCa-2 cells was 0.0001 μM to 0.5 μM; the inhibitory activity of some compounds on KRAS G12C mutant MIA PaCa-2 cells was 0.001 μM to 0.1 μM or 0.001 μM to 0.05 μM.

[4] = Homo sapiens, MIA PaCa-2, 120 h

Row | IC50 [1] | IC50 [2] | IC50 [3] | IC50 ([1]; Homo sapiens, NCI-H358, 120 h) | IC50 [3, 4] | IC50 ([2]; Homo sapiens, A549, 120 h) | Compound
1 | 460 nM | > 20000 nM |  |  |  |  | C=CC(=O)N1CCN2C(=O)c3c(N[C@H]4[C@@H]5CN(C)C[C@@H]54)nc(-c4c(O)cccc4F)c(Cl)c3OC[C@H]2C1 [Z46, (6aR)-8-acryloyl-4-chloro-3-(2-fluoro-6-hydroxyphenyl)-1-(((1R,5S,6s)-3-methyl-3-azabicyclo[3.1.0]hexan-6-yl)amino)-6,6a,7,8,9,10-hexahydro-12H-pyrazino[2,1-c]pyrido[3,4-f][1,4]oxazepin-12-one]
2 | 134 nM | > 1000 nM | 361 nM |  |  |  | C=CC(=O)N1CCN2C(=O)c3c(-c4c(F)cccc4OC)nc(-c4c(O)cccc4F)c(Cl)c3OC[C@H]2C1 [Z55, (6aR)-8-acryloyl-4-chloro-3-(2-fluoro-6-hydroxyphenyl)-1-(2-fluoro-6-methoxyphenyl)-6,6a,7,8,9,10-hexahydro-12H-pyrazino[2,1-c]pyrido[3,4-f]oxazepin-12-one]
3 |  |  |  | 39 nM | 67 nM | > 20000 nM | C=CC(=O)N1CCN2C(=O)c3c(N4CCOCC4)nc(-c4c(O)cccc4F)c(Cl)c3OC[C@H]2C1 [Z10, (6aR)-8-acryloyl-4-chloro-3-(2-fluoro-6-hydroxyphenyl)-1-morpholino-6,6a,7,8,9,10-hexahydro-12H-pyrazino[2,1-c]pyrido[3,4-f][1,4]oxazepin-12-one]
4 |  |  |  | 176 nM |  | > 30000 nM | C=CC(=O)N1CCN2C(=O)c3c(N4CCC(N(C)C)CC4)nc(-c4c(O)cccc4F)c(Cl)c3OC[C@H]2C1 [Z31, (6aR)-8-acryloyl-4-chloro-1-(4-(dimethylamino)piperidin-1-yl)-3-(2-fluoro-6-hydroxyphenyl)-6,6a,7,8,9,10-hexahydro-12H-pyrazino[2,1-c]pyrido[3,4-f][1,4]oxazepin-12-one]
5 |  |  |  | 479 nM |  | > 30000 nM | C=CC(=O)N1CCN2C(=O)c3c(N4CCS(=O)(=O)CC4)nc(-c4c(O)cccc4F)c(Cl)c3OC[C@H]2C1 [Z26, (6aR)-8-acryloyl-4-chloro-1-(1,1-dioxidothiomorpholino)-3-(2-fluoro-6-hydroxyphenyl)-6,6 a,7,8,9,10-hexahydro-12H-pyrazino[2,1-c]pyrido[3,4-f][1,4]oxazepin-12-one]
6 |  |  |  | 44.7 nM | 105 nM |  | C=CC(=O)N1CCN2C(=O)c3c(N4C[C@](C)(O)CC4(C)C)nc(-c4c(O)cccc4F)c(F)c3OC[C@H]2C1 (single isomer, unassigned) [Z256b-2]
7 |  |  |  | 145 nM |  | > 30000 nM | C=CC(=O)N1CCN2C(=O)c3c(N4CCN5C(=O)CC[C@H]5C4)nc(-c4c(O)cccc4F)c(Cl)c3OC[C@H]2C1 (single isomer, unassigned) [Z317a-1]
8 |  |  |  | 51 nM |  | > 5000 nM | C=CC(=O)N1CCN2C(=O)c3c(OC[C@H]4CCCN4C)nc(-c4c(O)cccc4F)c(Cl)c3OC[C@H]2C1 [Z13, (6aR)-8-acryloyl-4-chloro-3-(2-fluoro-6-hydroxyphenyl)-1-(((R)-1-methylpyrrolidin-2-yl)methoxy)-6,6a,7,8,9,10-hexahydro-12H-pyrazino[2,1-c]pyrido[3,4-f][1,4]oxazepin-12-one]
9 |  |  |  | 41 nM | 47 nM |  | C=CC(=O)N1CCN2C(=O)c3c(N4C[C@@H](C)O[C@@H](C)C4)nc(-c4c(O)cccc4F)c(Cl)c3OC[C@H]2C1 [Z247, (6aR)-8-acryloyl-1-((2S,6R)-2,6-dimethylmorpholino)-4-chloro-3-(2-fluoro-6-hydroxyphenyl)-6,6a,7,8,9,10-hexahydro-12H-pyrazino[2,1-c]pyrido[3,4-f][1,4]oxazepin-12-one]
10 |  |  |  | 113 nM |  | > 30000 nM | C=CC(=O)N1CCN2C(=O)c3c(NC(=O)CC(C)(C)C)nc(-c4c(O)cccc4F)c(Cl)c3OC[C@H]2C1 [Z33, N-((6aR)-8-acryloyl-4-chloro-3-(2-fluoro-6-hydroxyphenyl)-12-oxo-6,6a,7,8,9,10-hexahydro-12H-pyrazino[2,1-c]pyrido[3,4-f][1,4]oxazepin-1-yl)-3,3-dimethylbutanamide]
11 |  |  |  | 108 nM |  | > 30000 nM | C=CC(=O)N1CCN2C(=O)c3c(N4CCN5C(=O)CC[C@@H]5C4)nc(-c4c(O)cccc4F)c(Cl)c3OC[C@H]2C1 (single isomer, unassigned) [Z317a-2]
12 |  |  |  | 324 nM |  | > 30000 nM | C=CC(=O)N1CCN2C(=O)c3c(-c4cn(C)nc4C)nc(-c4c(O)cccc4F)c(Cl)c3OC[C@H]2C1 [Z74, (6aR)-8-acryloyl-4-chloro-1-(1,3-dimethyl-1H-pyrazol-4-yl)-3-(2-fluoro-6-hydroxyphenyl)-6,6a,7,8,9,10-hexahydro-12H-pyrazino[2,1-c]pyrido[3,4-f][1,4]oxazepin-12-one]
13 |  |  |  | 37 nM |  | > 1000 nM | C=CC(=O)N1CCN2C(=O)c3c(Nc4c(C)c(Cl)nn4C(C)C)nc(-c4c(O)cccc4F)c(Cl)c3OC[C@H]2C1 [Z16, (6aR)-8-acryloyl-4-chloro-1-((3-chloro-1-isopropyl-4-methyl-1H-pyrazol-5-yl)amino)-3-(2-fluoro-6-hydroxyphenyl)-6,6a,7,8,9,10-hexahydro-12H-pyrazino[2,1-c]pyrido[3,4-f][1,4]oxazepin-12-one]

Reference: patent US20230203060A1 (GENFLEET THERAPEUTICS (SHANGHAI) INC., priority 2020, published 2023)
